# In US10093630B2, “Pyrazole compounds and methods of making and using same” (ABIDE THERAPEUTICS, INC., priority 2014, dated 2018):
# What was measured:
# Assay in all cases: In vitro competitive activity-based protein profiling (gel-based, FP-Rh or HT-01 probe)
# Type in all cases: biochemical
# [1] = target: T1, ABHD6 (Mus musculus, UniProt Q8R2Y0); details: for inhibition at 1 µM: 1 μM inhibitor, read-out: % Inhibition at 1 μM, C = ABHD6; for inhibition at 10 µM: 10 μM inhibitor, read-out: % Inhibition at 10 μM, C = ABHD6; for IC50: mouse brain membrane fraction or cell lysates, 30 min preincubation at 37° C., read-out: Mouse (IC50 value, nM) ABHD6
# T1 construct: Proteomes (mouse brain membrane fraction or cell lysates); from tissue; host or cells: mouse brain membrane fraction (or cell lysates, not specified)
# T1 sequence (Q8R2Y0 1-336): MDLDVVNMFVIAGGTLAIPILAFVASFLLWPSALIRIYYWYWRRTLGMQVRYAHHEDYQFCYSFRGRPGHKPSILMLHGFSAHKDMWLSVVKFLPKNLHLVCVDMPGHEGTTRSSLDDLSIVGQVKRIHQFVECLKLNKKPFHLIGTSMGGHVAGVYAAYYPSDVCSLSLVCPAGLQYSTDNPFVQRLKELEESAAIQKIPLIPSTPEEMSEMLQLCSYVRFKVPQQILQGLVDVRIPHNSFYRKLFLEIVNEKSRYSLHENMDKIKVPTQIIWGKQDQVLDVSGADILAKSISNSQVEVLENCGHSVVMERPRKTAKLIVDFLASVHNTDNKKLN
# In short: (§1)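 Mouse brain membrane proteome or cell lysate (1.0 mg/mL protein) was preincubated with inhibitor at varying concentrations for 30 min at 37° C, then labelled with FP-Rh or HT-01 for 30 min at 37° C. After SDS-PAGE, residual hydrolase activity was quantified as in-gel fluorescence of each band.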
# [2] = target: T2, FAAH (Mus musculus, UniProt O08914); details: for inhibition at 1 µM: 1 μM inhibitor, read-out: % Inhibition at 1 μM, B = FAAH; for inhibition at 10 µM: 10 μM inhibitor, read-out: % Inhibition at 10 μM, B = FAAH; for IC50: mouse brain membrane fraction or cell lysates, 30 min preincubation at 37° C., read-out: Mouse (IC50 value, nM) FAAH
# T2 construct: Proteomes (mouse brain membrane fraction or cell lysates); from tissue; host or cells: mouse brain membrane fraction (or cell lysates, not specified)
# T2 sequence (O08914 1-579): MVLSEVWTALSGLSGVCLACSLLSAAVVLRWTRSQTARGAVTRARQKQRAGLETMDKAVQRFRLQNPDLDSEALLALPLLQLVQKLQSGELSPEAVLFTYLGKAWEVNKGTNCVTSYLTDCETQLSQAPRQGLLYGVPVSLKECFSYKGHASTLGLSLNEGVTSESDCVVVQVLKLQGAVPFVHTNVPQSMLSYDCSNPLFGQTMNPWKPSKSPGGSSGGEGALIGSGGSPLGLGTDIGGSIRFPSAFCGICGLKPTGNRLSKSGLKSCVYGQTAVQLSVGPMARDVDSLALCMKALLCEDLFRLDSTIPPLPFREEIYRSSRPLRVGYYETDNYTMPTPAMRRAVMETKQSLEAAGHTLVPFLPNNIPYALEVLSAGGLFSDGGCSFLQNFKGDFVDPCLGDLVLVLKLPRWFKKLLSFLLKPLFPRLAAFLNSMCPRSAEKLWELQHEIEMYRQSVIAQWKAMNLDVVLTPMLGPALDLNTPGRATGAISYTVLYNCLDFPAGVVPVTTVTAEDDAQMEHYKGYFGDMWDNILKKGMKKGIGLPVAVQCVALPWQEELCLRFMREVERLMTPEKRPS
# In short: as §1
# [3] = target: T3, MAGL (Mus musculus, UniProt O35678); details: for inhibition at 1 µM: 1 μM inhibitor; for inhibition at 10 µM: 10 μM inhibitor
# T3 construct: Proteomes (mouse brain membrane fraction or cell lysates); from tissue; host or cells: mouse brain membrane fraction (or cell lysates, not specified)
# T3 sequence (O35678 1-303): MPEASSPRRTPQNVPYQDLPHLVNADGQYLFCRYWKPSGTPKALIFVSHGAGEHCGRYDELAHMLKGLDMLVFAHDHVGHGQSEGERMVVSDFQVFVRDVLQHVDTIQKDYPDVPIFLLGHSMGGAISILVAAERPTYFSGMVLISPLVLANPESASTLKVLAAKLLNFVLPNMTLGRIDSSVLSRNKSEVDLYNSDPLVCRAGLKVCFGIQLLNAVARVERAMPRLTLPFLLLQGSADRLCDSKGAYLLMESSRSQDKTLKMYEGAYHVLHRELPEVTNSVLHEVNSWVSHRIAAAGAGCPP
# In short: as §1
# [4] = target: T4, PLA2G7 (Mus musculus, UniProt Q60963); details: for inhibition at 1 µM: 1 μM inhibitor, read-out: % Inhibition at 1 μM, D = PLA2G7; for inhibition at 10 µM: 10 μM inhibitor, read-out: % Inhibition at 10 μM, D = PLA2G7
# T4 construct: Proteomes (mouse brain membrane fraction or cell lysates); from tissue; host or cells: mouse brain membrane fraction (or cell lysates, not specified)
# T4 sequence (Q60963 22-440): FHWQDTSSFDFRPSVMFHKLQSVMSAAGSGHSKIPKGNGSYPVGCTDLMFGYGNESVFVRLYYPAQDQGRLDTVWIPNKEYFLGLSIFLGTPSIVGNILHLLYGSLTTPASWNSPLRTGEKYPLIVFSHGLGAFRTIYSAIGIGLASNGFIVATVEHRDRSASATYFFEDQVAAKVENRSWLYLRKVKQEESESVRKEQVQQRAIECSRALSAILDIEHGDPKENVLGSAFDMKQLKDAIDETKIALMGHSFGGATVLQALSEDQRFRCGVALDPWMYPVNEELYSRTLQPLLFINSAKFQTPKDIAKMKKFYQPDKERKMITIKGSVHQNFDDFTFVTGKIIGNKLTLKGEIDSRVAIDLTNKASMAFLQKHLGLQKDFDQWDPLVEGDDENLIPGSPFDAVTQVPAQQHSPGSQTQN
# In short: as §1
SMILES,inhibition at 1 µM [1],inhibition at 10 µM [1],inhibition at 1 µM [2],inhibition at 10 µM [2],inhibition at 1 µM [3],inhibition at 10 µM [3],inhibition at 1 µM [4],inhibition at 10 µM [4],IC50 [2],IC50 [1],"IC50 ([3]; mouse brain membrane fraction or cell lysates, 30 min preincubation at 37° C., read-out: Mouse (IC50 value, nM) MAGL)"
"O=C(c1cnn(C(=O)N2CCN(Cc3ccncc3)CC2)c1)N1CCC1 [Example 87, Azetidin-1-yl(1-(4-(pyridin-4-ylmethyl)piperazine-1-carbonyl)-1H-pyrazol-4-yl)methanone]",< 25%,> 75%,< 25%,> 75%,< 25%,< 25%,< 25%,> 75%,–,–,–
"O=C(c1cnn(C(=O)N2CCN(Cc3cccnc3)CC2)c1)N1CCC1 [Example 88, Azetidin-1-yl(1-(4-(pyridin-3-ylmethyl)piperazine-1-carbonyl)-1H-pyrazol-4-yl)methanone]",–,> 75%,–,25 to 75%,–,< 25%,–,> 75%,–,–,–
"O=C(c1cnn(C(=O)N2CCN(Cc3ccccn3)CC2)c1)N1CCC1 [Example 89, Azetidin-1-yl(1-(4-(pyridin-2-ylmethyl)piperazine-1-carbonyl)-1H-pyrazol-4-yl)methanone]",–,25 to 75%,–,> 75%,–,< 25%,–,> 75%,–,–,–
"O=C(c1cnn(C(=O)N2CCN(Cc3ccncn3)CC2)c1)N1CCC1 [Example 90, Azetidin-1-yl(1-(4-(pyrimidin-4-ylmethyl)piperazine-1-carbonyl)-1H-pyrazol-4-yl)methanone]",< 25%,> 75%,–,25 to 75%,–,< 25%,< 25%,> 75%,–,–,–
"O=C(c1cnn(C(=O)N2CCN(Cc3nccs3)CC2)c1)N1CCC1 [Example 91, Azetidin-1-yl(1-(4-(thiazol-2-ylmethyl)piperazine-1-carbonyl)-1H-pyrazol-4-yl)methanone]",< 25%,> 75%,–,> 75%,–,< 25%,< 25%,> 75%,> 1000 nM,–,–
"O=C(c1cnn(C(=O)N2CCN(Cc3cncnc3)CC2)c1)N1CCC1 [Example 92, Azetidin-1-yl(1-(4-(pyrimidin-5-ylmethyl)piperazine-1-carbonyl)-1H-pyrazol-4-yl)methanone]",< 25%,> 75%,–,< 25%,–,< 25%,< 25%,> 75%,–,–,–

# Continued, values first:
inhibition at 1 µM [1],inhibition at 10 µM [1],inhibition at 1 µM [2],inhibition at 10 µM [2],inhibition at 1 µM [3],inhibition at 10 µM [3],inhibition at 1 µM [4],inhibition at 10 µM [4],IC50 [2],IC50 [1],"IC50 ([3]; mouse brain membrane fraction or cell lysates, 30 min preincubation at 37° C., read-out: Mouse (IC50 value, nM) MAGL)",SMILES
> 75%,> 75%,> 75%,> 75%,> 75%,> 75%,< 25%,> 75%,< 100 nM,100 to 1000 nM,100 to 1000 nM,"Cc1cc(-c2ccccc2)ccc1CN1CCN(C(=O)n2cc(C(=O)N3CCC3)cn2)CC1 [Example 93, Azetidin-1-yl(1-(4-((3-methyl-[1,1′-biphenyl]-4-yl)methyl)piperazine-1-carbonyl)-1H-pyrazol-4-yl)methanone]"
–,< 25%,–,> 75%,–,< 25%,–,> 75%,–,–,–,"O=C(N1CCCC1)n1cc(-c2ccccc2)cn1 [Example 103, (4-Phenyl-1H-pyrazol-1-yl)(pyrrolidin-1-yl)methanone]"
25 to 75%,> 75%,–,< 25%,–,< 25%,< 25%,25 to 75%,–,–,–,"O=C(N1CCCC1)n1cc(-c2ccc(-c3ccccc3)cc2)cn1 [Example 106, (4-([1,1′-Biphenyl]-4-yl)-1H-pyrazol-1-yl)(pyrrolidin-1-yl)methanone]"
> 75%,> 75%,< 25%,< 25%,< 25%,> 75%,< 25%,25 to 75%,–,100 to 1000 nM,–,"COc1ccccc1-c1ccc(-c2cnn(C(=O)N3CCCC3)c2)cc1 [Example 107, (4-(2′-Methoxy-[1,1′-biphenyl]-4-yl)-1H-pyrazol-1-yl)(pyrrolidin-1-yl)methanone]"
